Measured values published in paper PMC5403950, “Mechanism Underlying the Reversal of Drug Resistance in P-Glycoprotein-Expressing Leukemia Cells by Pinoresinol and the Study of a Derivative” (Frontiers in Pharmacology, 2017).
Several values for one entry are separate records, joined by “and”; a condition that tells them apart may be missing. Equal values may be shown once. Entries after “also recorded” stand apart in the source; their conditions may differ. Read-outs that look alike come from different tables or passages of the source.

Experiments:
[1] = test system: K562 cells; assay: Multidrug resistance reversal assay (MTT) with DOX, sensitive parental line; type: cell-based, human
Experimental: (§1) Briefly, 5 × 10^4 Lucena 1 cells per well were seeded in 96-well plates containing RPMI-1640 medium in the presence of DOX alone or in combination with the tested compounds dissolved in ethanol or acetonitrile as appropriate. DOX was added to reach final concentrations of 0.05–431 μM. The compounds were assayed at the highest non-toxic concentration observed in both cell lines (cytotoxicity ≤ 20%, Cytotoxicity (%) = [1-(Optical density treatment-Optical density DMSO)/(Optical density control-Optical density DMSO)] x 100, determined by MTT proliferation assay (Joray et al., [2015]); maximum concentration tested 40 μg mL^−1). Following the primary screening, compounds 14 and 16 (dissolved in ethanol) were tested at serial dilutions. […] Subsequently, the supernatants were removed and replaced with 100 μL DMSO to solubilize the resulting purple formazan crystals produced from metabolically viable cells. Absorbance was measured with an iMark micro-plate reader (Bio-Rad, USA) at 595 nm.
(§2) The same reversal assay was performed in K562 cells, in order to discard a decrease in the IC50 of DOX due to effects other than P-gp inhibition. The reversal fold (RF) values for the tested compounds, which indicate their capacity to reduce resistance to DOX, were calculated by dividing the IC50 of DOX alone by the IC50 of DOX in the presence of the tested compounds (Xu et al., [2014]).

[2] = test system: Lucena 1 cells; assay: Multidrug resistance reversal assay (MTT) with DOX; type: cell-based, human; conditions: for Minimum effective concentration (MEC) in the reversal assay (potentiation of DOX toxicity from): Lucena 1; for Minimum effective concentration (MEC) in the reversal assay (potentiation of DOX toxicity from) / RF Lucena 1: DOX
Experimental: as §1, §2

[3] = molecular target: T1, P-gp (Homo sapiens, UniProt P08183); conditions: Lucena 1; for % of inhibition related to verapamil (DOX accumulation): 112 μM
[4] = test system: K562 cells; assay: Doxorubicin intracellular accumulation assay (flow cytometry), K562; type: cell-based, human; conditions: up to the maximum concentration evaluated
Source text: […]. […] Viability controls were included in all the experiments.

[5] = molecular target: T1, P-gp; assay: in vitro; conditions: Lucena 1 cells, probe doxorubicin (DOX) 5 μM
[6] = test system: peripheral blood mononuclear cells (PBMC); assay: Cytotoxicity on peripheral blood mononuclear cells (MTT); type: cell-based, human; conditions: PHA 10 μg mL−1, 48 h, confidence limits in brackets
Experimental: (§3) The cytotoxicity of 14 and 16 on peripheral blood mononuclear cells (PBMC) was evaluated by MTT assay (Joray et al., [2015]). PBMC were collected from fresh heparinized blood and separated by density gradient centrifugation (Ficoll®) as described by Rennó et al. ([2008]). As the current study required samples from healthy human volunteer donors, ethical approval was provided by the Catholic University of Córdoba Research Ethics Board. Signed informed consents were obtained from donors. […] Absorbance (Abs) and percentage of cytotoxicity were determined as described above and the IC50 values were calculated. The experiment was carried out in two separate stages.

[7] = as above; type: cell-based, human; conditions: human, peripheral blood mononuclear cells (PBMC), PHA 10 μg mL−1, confidence limits in brackets
Experimental: as §3

[8] = test system: P-gp; assay: Surface expression of P-gp (FITC anti-human P-gp, flow cytometry), K562; type: cell-based; conditions: 14 at 112 μM, 24 and 48 h
Experimental: (§4) To determine the effect of 14 on P-gp surface expression, Lucena 1 or K562 cells at a density of 5 × 10^4 cells mL^−1 were incubated in the presence of 14, dissolved in ethanol at 112 μM (maximum non-cytotoxic concentration, in order to ensure the presence of the effect) or 1% ethanol (control) for 24 and 48 h. Then, cells were washed with cold PBS and labeled for 30 min at 4°C in the dark with FITC-conjugated mouse anti-human P-gp antibody, which binds to an external epitope of P-gp, according to the manufacturer's instructions. Finally, cells were washed and suspended with ice-cold PBS and fluorescence intensity was determined in 10,000 individual cells by FACScan flow cytometry. FITC fluorescence was measured at an excitation wavelength of 488 nm and emitted light was collected with a 530/30 nm bandpass filter.

[9] = molecular target: T1, P-gp; assay: Rhodamine 123 efflux assay (flow cytometry); type: cell-based; design: Lucena 1 was chosen as a well-characterized resistant cell line in which P-gp overexpression is the exclusive mechanism of acquired resistance; endogenous in cells; host or cells: Lucena 1 (drug-selected, P-gp overexpressing) and parental K562 human CML cells; conditions: Lucena 1; 14 at 112 μM; 30 min efflux
[10] = molecular target: T1, P-gp; assay: Doxorubicin efflux assay (flow cytometry); type: cell-based; design: Lucena 1 was chosen as a well-characterized resistant cell line in which P-gp overexpression is the exclusive mechanism of acquired resistance; endogenous in cells; host or cells: Lucena 1 (drug-selected, P-gp overexpressing) and parental K562 human CML cells; conditions: Lucena 1
Experimental: […]. […] After washing, cells were incubated for 30 min with 14. […] Cells were then washed with ice-cold PBS and the intracellular DOX-associated MFI of 50,000 individual cells was determined by flow cytometry as previously described.

[11] = molecular target: T1, P-gp; assay: P-gp ATPase activity ([…] ATPase assay kit, Sf9 membranes); type: biochemical; design: host or cells: Spodoptera frugiperda Sf9 cells (membrane preparation); conditions: for Maximum stimulation of P-gp-ATPase activity: activation assay, at 66.7 μM, relative to maximum activation by verapamil
Experimental: The ATPase reaction was subsequently stopped and the inorganic phosphate (Pi) produced was measured colorimetrically at 630 nm.
All experiments were performed in the absence or presence of 1.2 mM of sodium orthovanadate, an ABC transporter-related ATPase inhibitor, in order to measure the vanadate-sensitive portion of the total ATPase activity. […] Membranes from Sf9 cells expressing defective P-gp were used as controls.

[12] = test system: Lucena 1 cells; assay: Reversal assay (MTT) with VLB; type: cell-based, human; conditions: 14 at 112 μM, verapamil as reference
Experimental: Subsequently, the supernatants were removed and replaced with 100 μL DMSO to solubilize the resulting purple formazan crystals produced from metabolically viable cells.
The same reversal assay was performed in K562 cells, in order to discard a decrease in the IC50 of DOX due to effects other than P-gp inhibition.

[13] = test system: P-gp; assay: Surface expression of P-gp (FITC anti-human P-gp, flow cytometry), Lucena 1; type: cell-based; conditions: 14 at 112 μM, 48 h
Experimental: as §4

[14] = test system: K562 cells; assay: Reversal assay (MTT) with VLB, sensitive parental line; type: cell-based, human; conditions: 14 at 112 μM, verapamil as reference
[15] = test system: K562 cells; assay: Doxorubicin efflux assay (flow cytometry), K562; type: cell-based, human; conditions: 14 at 112 μM, verapamil 30 μM
Experimental: Cells were then washed with ice-cold PBS and the intracellular DOX-associated MFI of 50,000 individual cells was determined by flow cytometry as previously described.

[16] = test system: K562 cells; assay: Rhodamine 123 efflux assay (flow cytometry), K562; type: cell-based, human; conditions: 14 at 112 μM
Experimental: Rho 123, a P-gp fluorescent substrate, is frequently employed as an indicator of P-gp activity and it was therefore used in an additional efflux study. […] Subsequently, cells were incubated with 500 ng mL^−1 of Rho 123 for 30 min. […] After washing twice with cold PBS, the amount of Rho 123 remaining in 10,000 individual cells after the efflux period was quantified by FACScan flow cytometry. Excitation was performed with a laser operating at 488 nm and the emitted fluorescence was collected through a 530/30 nm pass filter.

[17] = 1 h pre-incubation, 5 μM DOX 1 h

T1 sequence (P08183 whole entry): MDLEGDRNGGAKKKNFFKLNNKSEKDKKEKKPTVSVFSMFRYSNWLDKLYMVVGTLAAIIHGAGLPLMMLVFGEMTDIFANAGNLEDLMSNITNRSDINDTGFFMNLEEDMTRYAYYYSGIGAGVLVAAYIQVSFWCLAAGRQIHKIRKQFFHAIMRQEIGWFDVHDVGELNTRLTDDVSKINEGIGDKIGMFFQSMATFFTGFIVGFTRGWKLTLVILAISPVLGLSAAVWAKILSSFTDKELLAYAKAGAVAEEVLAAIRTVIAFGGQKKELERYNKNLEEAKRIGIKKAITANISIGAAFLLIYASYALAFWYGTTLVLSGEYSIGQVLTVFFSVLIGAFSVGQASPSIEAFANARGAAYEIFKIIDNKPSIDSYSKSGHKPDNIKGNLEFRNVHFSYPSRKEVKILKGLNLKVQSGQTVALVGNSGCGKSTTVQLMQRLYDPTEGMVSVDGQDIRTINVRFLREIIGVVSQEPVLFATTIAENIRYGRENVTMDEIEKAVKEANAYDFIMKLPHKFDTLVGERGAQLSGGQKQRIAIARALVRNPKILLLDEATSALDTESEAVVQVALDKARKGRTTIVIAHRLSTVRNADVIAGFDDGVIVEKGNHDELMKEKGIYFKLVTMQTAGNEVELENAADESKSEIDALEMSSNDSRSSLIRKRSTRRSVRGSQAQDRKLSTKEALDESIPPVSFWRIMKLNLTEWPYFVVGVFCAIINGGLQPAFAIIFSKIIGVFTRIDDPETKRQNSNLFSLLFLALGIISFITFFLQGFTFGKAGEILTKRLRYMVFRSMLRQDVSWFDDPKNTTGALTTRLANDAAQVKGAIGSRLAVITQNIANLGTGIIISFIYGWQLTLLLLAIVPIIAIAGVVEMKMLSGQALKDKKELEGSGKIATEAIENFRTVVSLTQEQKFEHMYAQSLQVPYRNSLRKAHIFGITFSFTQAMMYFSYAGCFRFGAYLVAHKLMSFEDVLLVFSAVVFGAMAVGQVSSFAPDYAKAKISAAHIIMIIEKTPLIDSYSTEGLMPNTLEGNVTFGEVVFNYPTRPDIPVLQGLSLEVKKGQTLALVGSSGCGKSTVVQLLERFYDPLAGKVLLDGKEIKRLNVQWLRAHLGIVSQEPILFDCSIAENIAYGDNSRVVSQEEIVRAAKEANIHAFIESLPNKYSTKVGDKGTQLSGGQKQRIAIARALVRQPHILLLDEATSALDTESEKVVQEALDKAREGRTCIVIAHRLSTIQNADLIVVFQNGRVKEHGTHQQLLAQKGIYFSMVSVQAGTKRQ
T1 sequence (P08183 whole entry): as above

Compound: COc1cc([C@H]2OC[C@]3(OC(C)=O)[C@@H](c4ccc(O)c(OC)c4)OC[C@H]23)ccc1O [Compound 16, 1-acetoxy-(+)-pinoresinol]
- Effect on DOX activity in K562 ([1]; compound at 14 μM): no potentiation
- RF K562 ([1]; compound at 14 μM, DOX): 1.05 ± 0.14
- Minimum effective concentration (MEC) in the reversal assay (potentiation of DOX toxicity from) [2]: 0.11 µM
- RF Lucena 1 ([2]; compound at 0.11 μM): 1.4
- RF Lucena 1 ([2]; compound at 14 μM): 22.7
- Effectiveness of 16 relative to 14 according to the MECs ([2]; reversal and accumulation assays): 64 times
- Minimum effective concentration (MEC) in the DOX accumulation assay [3, 17]: 0.87 µM
- DOX accumulation in K562 [4]: no increase in DOX accumulation
- activity at 0.87 µM [5]: 62%
- activity at 14 µM [5]: 141%
- IC50 [6]: 103 µM
- IC50 at 48 h [7]: 103 µM

Compound: (±)-pinoresinol [Compound 14]
- P-gp presence in the outer membrane [8]: No suppression of P-gp presence
- Effect on DOX sensitivity in K562 ([1]; compound at highest non-toxic concentration (Table 1)): did not increase DOX sensitivity
- Minimum effective concentration (MEC) in the reversal assay (potentiation of DOX toxicity from) [2]: 7 µM
- RF Lucena 1 ([2]; compound at 28 μM (serial dilution)): 3.4
- Enhancement of intracellular Rho 123 intensity in efflux assay [9]: 1.5 fold
- Increase in DOX-associated MFI (retention) vs control in efflux assay ([10]; 14 at 112 μM, 30 min in DOX-free medium): 1.8 fold
- Minimum effective concentration (MEC) in the DOX efflux assay ([10]; 30 min efflux): 56 µM
- Maximum stimulation of P-gp-ATPase activity [11]: 29.49 ± 4.55%
- Maximum stimulation of P-gp-ATPase activity ([11]; listed as pinoresinol): 29%
- Effect on ATPase activity of control membranes ([11]; membranes from Sf9 cells expressing defective P-gp, up to 600 μM): no effect
- % of inhibition related to verapamil (DOX accumulation) ([3]; 0 h pre-incubation): 60%
- % of inhibition related to verapamil (DOX accumulation) ([3]; 0.5 h pre-incubation): 73%
- % of inhibition related to verapamil (DOX accumulation) ([3]; 1 h pre-incubation, verapamil 30 μM = maximum inhibition): 79%
- % of inhibition related to verapamil (DOX accumulation) ([3]; 48 h pre-incubation): 55%
- % inhibition with respect to verapamil (DOX accumulation) ([3]; 14 at 56 μM (MEC)): 80%
- Time course of DOX accumulation ([3]; 14 at 112 μM, at 20 min, compared with MFI in K562): fully restored the presence of DOX within Lucena 1 cells
- Minimum effective concentration (MEC) in the DOX accumulation assay [3, 17]: 56 µM
- Type of P-gp inhibition (Lineweaver-Burk double reciprocal plot of DOX retention) ([3]; 1 h with 14, then 1 h DOX): competitive inhibitor
- Increase in DOX-associated MFI vs ethanol control ([3]; 48 h pre-incubation, 14 at 112 μM, verapamil 30 μM, 5 μM DOX 1 h): 1.4 fold
- Increase in DOX accumulation (MFI) vs ethanol control ([3]; no pre-incubation (0 h), 14 at 112 μM, verapamil 30 μM, 5 μM DOX 1 h): 1.3 fold
- Reversal fold (RF) to VLB [12]: 60 and 60.20
- P-gp expression at the membrane surface vs control [13]: less P-gp at the Lucena 1 cell membrane; also recorded: lower
- DOX accumulation in K562 [4]: No such increase in MFI
- Reversal fold (RF) to VLB [14]: 9 and 9.63
- Effect on DOX efflux in K562 [15]: Neither 14 nor verapamil showed any significant effect
- Rho 123-associated MFI in K562 [16]: did not induce any increase
